Starred links: 1 amine or outer side, 2 acyl side, 3 side chain; linkers in the order of their positions; H or OH if unused. Positions of bridges follow the written chain, without caps; N, C: chain ends. Non-standard residues stand in square brackets, D forms with d. Residues, ends and D or L forms follow the SMILES beside them. ξ: configuration not given here. X1 = CC(C)[C@H](CC(=O)[C@@H](N[*:1])C(C)C)C(=O)[*:2]; NMeF = CN[C@@H](Cc1ccccc1)C(=O)O; NMeNle = CCCC[C@H](NC)C(=O)O; NMeA = CN[C@@H](C)C(=O)O; ξD = NC(CC(=O)O)C(=O)O

The target of this assay is T1, human ROR1 (Homo sapiens, UniProt Q01973).
T1 construct: host or cells: HEK 293T cells, Tet-on system induced with doxycycline
T1 sequence (Q01973 30-937): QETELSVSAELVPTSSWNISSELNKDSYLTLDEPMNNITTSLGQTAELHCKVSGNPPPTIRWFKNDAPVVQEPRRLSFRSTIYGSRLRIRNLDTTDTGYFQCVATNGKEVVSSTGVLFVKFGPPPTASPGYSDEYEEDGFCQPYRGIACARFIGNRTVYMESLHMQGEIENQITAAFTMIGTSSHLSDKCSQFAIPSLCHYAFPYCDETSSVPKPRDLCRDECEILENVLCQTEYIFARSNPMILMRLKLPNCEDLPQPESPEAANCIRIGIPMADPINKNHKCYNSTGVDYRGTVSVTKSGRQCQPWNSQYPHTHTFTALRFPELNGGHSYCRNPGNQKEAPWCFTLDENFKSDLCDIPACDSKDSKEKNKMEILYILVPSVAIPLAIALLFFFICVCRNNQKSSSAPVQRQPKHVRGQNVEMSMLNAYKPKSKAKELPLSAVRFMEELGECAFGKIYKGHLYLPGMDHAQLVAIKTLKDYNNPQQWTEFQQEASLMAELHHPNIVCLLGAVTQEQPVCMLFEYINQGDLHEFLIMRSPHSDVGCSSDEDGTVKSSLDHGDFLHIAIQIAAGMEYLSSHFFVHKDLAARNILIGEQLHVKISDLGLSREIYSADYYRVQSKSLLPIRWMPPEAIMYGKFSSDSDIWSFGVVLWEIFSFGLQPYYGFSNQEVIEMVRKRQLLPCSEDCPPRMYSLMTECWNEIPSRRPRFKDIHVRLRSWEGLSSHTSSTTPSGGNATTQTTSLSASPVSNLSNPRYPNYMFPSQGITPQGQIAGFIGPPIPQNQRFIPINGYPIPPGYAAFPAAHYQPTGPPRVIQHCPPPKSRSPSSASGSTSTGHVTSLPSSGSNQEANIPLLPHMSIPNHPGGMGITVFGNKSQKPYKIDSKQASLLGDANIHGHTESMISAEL
The experiment in a line: ROR1 high content cell-based binding assay. The following applies: read-out: ROR1 Binding 293T Human HC Cell Based Assay IC50. How it is done:
ROR1 high content cell-based binding assay: Human embryonic kidney 293T cells (293T) expressing human ROR1 with Tet-on system by doxycycline were used (Arctic-488134) for the assessment of inhibition of the binding of fluorescently-labeled competing peptide (“Probe”) that specifically binds to human ROR1. […] Cryopreserved vials were thawed in a 37° C. water bath. Cells were washed in assay culture media [DMEM (Life Technologies Inc. Cat. […] Cat. No. 15140-122) and […] dox] and diluted 1.0×10^5 cells/mL. Cells were seeded into PDL-coated 384 well plates (BD Falcon Cat. No. 356663) at 2,000 cells/20 μL. Plates were allowed to incubate for 10 minutes at room temperature and then transferred to a 37° C./5% CO2 incubator for overnight incubation. The next day, 125 nL of the test compound was added using an ECHO followed by the addition of 5 μL/well of 5-FAM-labeled probe to cells at a final concentration of 30 nM. Sample were incubated for 1 hour at 37° C. for 1 hour, followed by 3 washes in […] of dPBS. Cells were fixed by adding 8% (w/v) formaldehyde (Sigma Cat. No. 252549), 20 μg/mL Hoechst (Thermo Scientific Cat. No. 62249) in PBS for 20 minutes at room temperature. The plates were washed 3 more times in dPBS and 15 μl of PBS was left in the wells following the last wash. The plates were sealed, and data was using obtained using a CellInsight NXT High Content Screening Platform IC903000 (Thermo Scientific).
Regarding `CC(C)C[C@@H]1NC(=O)[C@H](Cc2c[nH]c3ccccc23)NC(=O)[C@H](C(C)C)NC(=O)CNC(=O)[C@H](CO)NC(=O)[C@H](Cc2ccccc2)N(C)C(=O)[C@H](Cc2ccc(O)cc2)NC(=O)[C@H](Cc2ccc(O)cc2)NC(=O)[C@@H](Cc2ccccc2)NC(=O)CSC[C@@H](C(=O)NCC(N)=O)NC(=O)[C@H](C(C)C)NC(=O)[C@H](Cc2ccc(O)cc2)NC1=O` [Example 1000] ({CH2CO}-[dF]YY[NMeF]SGVWLYVCG-NH2; thioether N-12), the IC50 came out at 11 nM.

With `CC(C)C[C@@H]1NC(=O)[C@H](Cc2c[nH]c3ccccc23)NC(=O)[C@H](Cc2ccc(O)cc2)NC(=O)[C@H](Cc2c[nH]c3ccccc23)NC(=O)CNC(=O)[C@H](CO)NC(=O)[C@H](Cc2ccc(O)cc2)NC(=O)[C@H](C(C)C)NC(=O)[C@@H]2CCCN2C(=O)[C@H](Cc2ccc(O)cc2)NC(=O)[C@H](Cc2ccccc2)NC(=O)CSC[C@@H](C(=O)NCC(N)=O)NC1=O` [Example 1001] ({CH2CO}-FYPVYSGWYWLCG-NH2; thioether N-12), the IC50 came to 49 nM.

As to `CCCC[C@H]1C(=O)N[C@H](C(=O)NCC(N)=O)CSCC(=O)N[C@@H](Cc2ccccc2)C(=O)N[C@@H](Cc2ccc(O)cc2)C(=O)N[C@@H](Cc2c[nH]c3ccccc23)C(=O)N[C@@H](CO)C(=O)N[C@@H](CO)C(=O)N[C@@H](CCCNC(=N)N)C(=O)N(C)[C@@H](C)C(=O)N[C@@H](Cc2c[nH]c3ccccc23)C(=O)N[C@@H](Cc2ccc(O)cc2)C(=O)N[C@@H](CC(C)C)C(=O)N1C` [Example 1003] ({CH2CO}-FYWSSR[NMeA]WYL[NMeNle]CG-NH2; thioether N-12), the IC50 turned out to be 8 nM.

On to `CC(C)C[C@@H]1NC(=O)[C@H](Cc2ccccc2)NC(=O)CSC[C@@H](C(=O)NCC(N)=O)NC(=O)[C@H](C)NC(=O)[C@H](Cc2c[nH]c3ccccc23)NC(=O)[C@H](Cc2ccccc2)NC(=O)[C@H](Cc2c[nH]c3ccccc23)NC(=O)CNC(=O)[C@H](Cc2ccc(O)cc2)NC(=O)[C@H](CCCNC(=N)N)NC(=O)[C@H](C(C)C)NC(=O)[C@H](Cc2c[nH]c3ccccc23)NC1=O` [Example 1004] ({CH2CO}-FLWVRYGWFWACG-NH2; thioether N-12), for which the concentration for half-maximal inhibition (IC50) turned out to be 99 nM.

For `CC(C)C[C@@H]1NC(=O)[C@H](Cc2ccccc2)NC(=O)CSC[C@@H](C(=O)NCC(N)=O)NC(=O)[C@H](C)NC(=O)[C@H](Cc2ccc(O)cc2)NC(=O)[C@H](Cc2ccc(O)cc2)NC(=O)[C@H](Cc2c[nH]c3ccccc23)NC(=O)CNC(=O)[C@H](Cc2ccc(O)cc2)NC(=O)[C@H](CCCNC(=N)N)NC(=O)[C@H](C(C)C)NC(=O)[C@H](Cc2c[nH]c3ccccc23)NC1=O` [Example 1005] ({CH2CO}-FLWVRYGWYYACG-NH2; thioether N-12), the IC50 amounted to 30 nM.

On to `CC(C)C[C@@H]1NC(=O)[C@H](Cc2c[nH]c3ccccc23)NC(=O)[C@H](Cc2ccccc2)NC(=O)[C@H](Cc2c[nH]c3ccccc23)NC(=O)CNC(=O)[C@H](CO)NC(=O)[C@H](Cc2ccc(O)cc2)NC(=O)[C@H](C(C)C)NC(=O)[C@H](CCCNC(=N)N)NC(=O)[C@H](Cc2ccccc2)NC(=O)[C@H](Cc2ccccc2)NC(=O)CSC[C@@H](C(=O)NCC(N)=O)NC1=O` [Example 1006] ({CH2CO}-FFRVYSGWFWLCG-NH2; thioether N-12), for which the IC50 is 147 nM.

For `CC[C@H](C)[C@@H]1NC(=O)[C@H](Cc2ccccc2)NC(=O)CSC[C@@H](C(=O)NCC(N)=O)NC(=O)[C@H](C)NC(=O)[C@H](Cc2ccccc2)NC(=O)[C@H](Cc2ccc(O)cc2)NC(=O)[C@H](Cc2c[nH]c3ccccc23)NC(=O)CNC(=O)[C@H](CCC(=O)O)NC(=O)[C@H](Cc2ccc(O)cc2)NC(=O)[C@H](C(C)C)NC(=O)[C@H](Cc2c[nH]c3ccccc23)NC1=O` [Example 1008] ({CH2CO}-FIWVYEGWYFACG-NH2; thioether N-12), the IC50 came out at 36 nM.

As for `CC(C)C[C@@H]1NC(=O)[C@H](Cc2c[nH]c3ccccc23)NC(=O)[C@H](Cc2ccc(O)cc2)NC(=O)[C@H](Cc2c[nH]c3ccccc23)NC(=O)CNC(=O)C(CC(=O)O)NC(=O)[C@H](Cc2ccc(O)cc2)NC(=O)[C@H](C(C)C)NC(=O)[C@@H]2CCCN2C(=O)[C@H](Cc2ccc(O)cc2)NC(=O)[C@H](Cc2ccccc2)NC(=O)CSC[C@@H](C(=O)NCC(N)=O)NC1=O` (some centres unmarked) [Example 1009] ({CH2CO}-FYPVY[ξD]GWYWLCG-NH2; thioether N-12), the IC50 is 54 nM.

Take `CC(C)C[C@@H]1NC(=O)[C@H](Cc2c[nH]c3ccccc23)NC(=O)[C@H](Cc2ccccc2)NC(=O)[C@H](Cc2c[nH]c3ccccc23)NC(=O)CNC(=O)CNC(=O)[C@H](CC(C)C)NC(=O)[C@H](C(C)C)NC(=O)[C@H](CC(C)C)NC(=O)[C@H](Cc2ccc(O)cc2)NC(=O)[C@H](Cc2ccccc2)NC(=O)CSC[C@@H](C(=O)NCC(N)=O)NC1=O` [Example 1010] ({CH2CO}-FYLVLGGWFWLCG-NH2; thioether N-12): the IC50 amounted to 821 nM.

On to `CC(C)C[C@@H]1NC(=O)[C@H](Cc2c[nH]c3ccccc23)NC(=O)[C@H](Cc2ccccc2)NC(=O)[C@H](Cc2c[nH]c3ccccc23)NC(=O)CNC(=O)[C@H](CC(=O)O)NC(=O)[C@H](CCCNC(=N)N)NC(=O)[C@H](C(C)C)CC(=O)[C@H](C(C)C)NC(=O)[C@H](Cc2ccc(O)cc2)NC(=O)[C@H](Cc2ccccc2)NC(=O)CSC[C@@H](C(=O)NCC(N)=O)NC1=O` [Example 1011] ({CH2CO}-FY[X1]RDGWFWLCG-NH2; thioether N-11), for which the IC50 was determined as 168 nM.

Take `CC(C)C[C@@H]1NC(=O)[C@H](Cc2c[nH]c3ccccc23)NC(=O)[C@H](Cc2ccccc2)NC(=O)[C@H](Cc2c[nH]c3ccccc23)NC(=O)CNC(=O)[C@H](CO)NC(=O)[C@H](Cc2ccc(O)cc2)NC(=O)[C@H](C(C)C)NC(=O)[C@@H]2CCCN2C(=O)[C@H](Cc2ccc(O)cc2)NC(=O)[C@H](Cc2ccccc2)NC(=O)CSC[C@@H](C(=O)NCC(N)=O)NC1=O` [Example 1012] ({CH2CO}-FYPVYSGWFWLCG-NH2; thioether N-12): the IC50 came out at 36 nM.

As for `CC(C)C[C@@H]1NC(=O)[C@H](Cc2ccccc2)NC(=O)CSC[C@@H](C(=O)NCC(N)=O)NC(=O)[C@H](C)NC(=O)[C@H](Cc2c[nH]c3ccccc23)NC(=O)[C@H](Cc2ccc(O)cc2)NC(=O)[C@H](Cc2c[nH]c3ccccc23)NC(=O)[C@H](Cc2c[nH]c3ccccc23)NC(=O)[C@H](CCC(=O)O)NC(=O)[C@H](Cc2ccc(O)cc2)NC(=O)[C@H](C(C)C)NC(=O)[C@H](Cc2c[nH]c3ccccc23)NC1=O` [Example 1013] ({CH2CO}-FLWVYEWWYWACG-NH2; thioether N-12), the IC50 stood at 637 nM.

Regarding `CC(C)C[C@@H]1NC(=O)[C@H](Cc2c[nH]c3ccccc23)NC(=O)[C@H](Cc2ccccc2)NC(=O)[C@H](Cc2c[nH]c3ccccc23)NC(=O)CNC(=O)[C@H](CO)NC(=O)[C@H](Cc2ccc(O)cc2)NC(=O)[C@H](C(C)C)NC(=O)[C@H](CCCNC(=N)N)NC(=O)[C@H](Cc2ccccc2)NC(=O)[C@H](Cc2ccccc2)NC(=O)CSC[C@@H](C(N)=O)NC1=O` [Example 1014] ({CH2CO}-FFRVYSGWFWLC-NH2; thioether N-12), the IC50 was determined as 707 nM.

Consider `CC(C)C[C@@H]1NC(=O)[C@H](Cc2ccc(O)cc2)NC(=O)[C@H](Cc2ccccc2)NC(=O)CSC[C@@H](C(=O)NCC(N)=O)NC(=O)[C@H](CC(C)C)NC(=O)[C@H](Cc2ccccc2)N(C)C(=O)[C@H](Cc2ccc(O)cc2)NC(=O)[C@H](Cc2c[nH]c3ccccc23)NC(=O)CNC(=O)[C@H](Cc2cnc[nH]2)NC(=O)[C@H](Cc2ccc(O)cc2)NC(=O)[C@H](C(C)C)NC1=O` [Example 1015] ({CH2CO}-FYLVYHGWY[NMeF]LCG-NH2; thioether N-12), for which the IC50 is 17 nM.

Consider `CC(C)C[C@@H]1NC(=O)[C@H](Cc2ccc(O)cc2)NC(=O)[C@H](Cc2ccccc2)NC(=O)CSC[C@@H](C(=O)NCC(N)=O)NC(=O)[C@H](CC(C)C)NC(=O)[C@H](Cc2ccccc2)N(C)C(=O)[C@H](Cc2ccc(O)cc2)NC(=O)[C@H](Cc2c[nH]c3ccccc23)NC(=O)CNC(=O)[C@H](CCC(N)=O)NC(=O)[C@H](Cc2ccc(O)cc2)NC(=O)[C@H](C(C)C)NC1=O` [Example 1016] ({CH2CO}-FYLVYQGWY[NMeF]LCG-NH2; thioether N-12), for which the IC50 was determined as 7 nM.

Take `CC(C)C[C@@H]1NC(=O)[C@H](Cc2ccc(O)cc2)NC(=O)[C@H](Cc2ccccc2)NC(=O)CSC[C@@H](C(=O)NCC(N)=O)NC(=O)[C@H](CC(C)C)NC(=O)[C@H](Cc2ccccc2)N(C)C(=O)[C@H](Cc2ccc(O)cc2)NC(=O)[C@H](Cc2c[nH]c3ccccc23)NC(=O)CNC(=O)[C@H](CC(=O)O)NC(=O)[C@H](Cc2ccc(O)cc2)NC(=O)[C@H](C(C)C)NC1=O` [Example 1017] ({CH2CO}-FYLVYDGWY[NMeF]LCG-NH2; thioether N-12): the IC50 was 14 nM.

Regarding `CC(C)C[C@@H]1NC(=O)[C@H](Cc2ccc(O)cc2)NC(=O)[C@H](Cc2ccccc2)NC(=O)CSC[C@@H](C(=O)NCC(N)=O)NC(=O)[C@H](CC(C)C)NC(=O)[C@H](Cc2ccccc2)N(C)C(=O)[C@H](Cc2ccc(O)cc2)NC(=O)[C@H](Cc2c[nH]c3ccccc23)NC(=O)CNC(=O)[C@H](CCCNC(=N)N)NC(=O)[C@H](Cc2ccc(O)cc2)NC(=O)[C@H](C(C)C)NC1=O` [Example 1018] ({CH2CO}-FYLVYRGWY[NMeF]LCG-NH2; thioether N-12), the concentration for half-maximal inhibition (IC50) was found to be 30 nM.

The term IC50 denotes the concentration that inhibits the measured activity by half.

The record behind these values is patent US20240116988A1, “ANTI-ROR1 MACROCYCLIC PEPTIDES AND COMPOSITIONS” (BRISTOL-MYERS SQUIBB COMPANY, priority 2022, published 2024).
